Test: Lipid Peroxidation (LPO) assay
Type: biochemical
Conditions: 2% linoleic acid + 1% trolox in methanol, solar simulator UV dose 36x10^4 J/m^2; FIG. 2 column 2, negative control
Description: Lipids are present in the cell membrane bilayer. Peroxidation of lipids compromises the integrity of skin cells and […] the ageing process resulting in premature ageing. The LPO assay is designed to determine the level of LPO damage in the skin with and without external stresses such as UV exposure; and investigating whether early defence complex can protect against the UV induced LPO damage. K-assay LPO-CC004 lipid peroxidation kit (Kamiya biomedical company)˜500 assays containing— • Reagent 1 (liquid): Enzyme reagent (ascorbic oxidase, lipoprotein lipase, stabilizer, goods buffer, surfactants) • Reagent 2A: Lyophilised chromogen reagent (MCDP for 110 ml reagent 2B) • Reagent 2B: Buffer solution (liquid) (goods buffer, hemoglobin, surfactants) • Calibrator (liquid): (50 nmol/ml cumene hyderoperoxide) • D-squames (CuDerm Corp. Dalla, USA) • Linoleic acid (L.A) • Methanol (MeOH) • Deionised water (dH2O) • 96 well flat bottom clear plate • Plate reader Unless otherwise stated all the samples were prepared weight per volume in methanol. […] Absorbance was read at 675 nm. For each well, the methanol background reading was subtracted from the absorbance reading. […] As samples were run in triplicate, the mean of each sample was then calculated. […]

Compound: Cc1c(C)c2c(c(C)c1O)CCC(C)(C(=O)O)O2 (stereo not shown) [Trolox]
- oxidation (lipid peroxidation, absorbance at 675 nm): very low oxidation

From US20180110721A1, “TOPICAL COSMETIC COMPOSITIONS AGAINST FREE RADICALS” (THE BOOTS COMPANY PLC, priority 2015, published 2018)
